According to US9382330B2, “Pdia4, target of cytopiloyne derivatives, for tumor diagnosis and treatment” (ACADEMIA SINICA, priority 2010, dated 2016):
Entries after “also recorded” stand apart in the source; their conditions may differ. Read-outs that look alike come from different tables or passages of the source.

Assays:
GST-Pdia4 [1] = target: T1, GST-Pdia4 (Homo sapiens, UniProt P13667); experiment: Pull down assay of GST fusion proteins with BCP (avidin-POD blot); format: binding; conditions: 2-mercaptoethanol added to the incubation
T1 construct: made in house; host or cells: E. coli BL21 DE3 pLysS
T1 sequence (P13667 21-645): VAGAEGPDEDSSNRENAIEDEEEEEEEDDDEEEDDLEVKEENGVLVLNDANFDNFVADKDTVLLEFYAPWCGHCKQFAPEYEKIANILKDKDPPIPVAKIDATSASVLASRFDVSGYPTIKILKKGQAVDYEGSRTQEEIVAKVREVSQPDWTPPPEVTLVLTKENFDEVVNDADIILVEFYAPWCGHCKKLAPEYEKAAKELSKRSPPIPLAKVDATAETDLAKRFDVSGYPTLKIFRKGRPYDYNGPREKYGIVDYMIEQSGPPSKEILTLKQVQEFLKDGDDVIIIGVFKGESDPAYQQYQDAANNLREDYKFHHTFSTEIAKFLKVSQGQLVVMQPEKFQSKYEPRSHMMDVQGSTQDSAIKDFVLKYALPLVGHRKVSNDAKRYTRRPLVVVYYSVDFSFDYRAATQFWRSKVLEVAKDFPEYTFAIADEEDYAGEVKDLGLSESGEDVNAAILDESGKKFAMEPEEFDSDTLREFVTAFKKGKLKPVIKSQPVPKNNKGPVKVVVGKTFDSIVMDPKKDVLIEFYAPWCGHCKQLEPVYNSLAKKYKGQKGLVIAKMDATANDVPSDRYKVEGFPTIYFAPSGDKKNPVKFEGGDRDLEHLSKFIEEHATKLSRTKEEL
Description: (§1) pGEX4T3-Hspa5, pGEX4T3-Pdia4, and pGEX4T3-TecSH3 were obtained by cloning human Hspa5 cDNA, human Pdia4 cDNA and the SH3 domain of mouse Tec cDNA to a pGEX4T3 vector, respectively. GST fusion proteins were purified from the bacterial host E. coli BL21 DE3 pLysS, which harbored the above constructs, according to the manufacturer's instructions (Amersham Biosciences, NJ, USA). Glutathione agarose bead-bound GST fusion proteins (0.15 μg) were incubated with DMSO vehicle or BCP (0.026 μg) for overnight. The proteins were separated by SDS-PAGE and blotted with avidin-POD. For competition assays, CP (0.16 μg (10-fold) and 0.81 μm (50-fold)) or CPA (0.09 μg (10-fold) and 0.45 μm (50-fold)) was added to the above incubation. For interference assay, 2-mercaptoethanol (2.2 mg) was added to the incubation. To test effect of CPA on disulfide isomerase activity of GST-Pdia4, reduced BPTI (0.39 μg) was incubated with redox buffer in the presence of vehicle, 5.64 μg GST-Pdia4 or 5.64 μg GST-Pdia4 plus CPA (0.33 μg). Enzymatic activity of GST-Pdia4, shown as fraction remaining (%), was determined by the conversion of the reduced BPTI into disulfide intermediates as described (Satoh, M., et al. (2005) Cell Stress Chap. 10(3), 211-220).

T cell = conditions: cited from earlier work
Jurkat cells [2] = experiment: Cell growth and death by counting living and dead cells with eosin Y; format: cell-based; conditions: for Jurkat cell growth: indicated concentrations, 6 days
Description: (§2) FIGS. 1A-C Effect of cytopiloyne (CP) and cytopiloyne aglycone (CPA) on cell growth, death and proliferation. FIG. 1A-B are graphs showing effects of CP and CPA on growth and death of Jurkat cells. Jurkat cells were grown in RPMI medium in the presence of DMSO (−), CP and CPA at the indicated concentrations for 6 days. Numbers of living cells (FIG. 1A) and dead cells (FIG. 1B) were counted by using eosin Y and hematocytometer. Growth (%) is defined as 100% multiplied by the ratio of the living cell number with compound treatment to that with the control treatment. Death (%) is defined as 100% multiplied by the ratio of the dead cell number to a total of cells (both living and dead). FIG. 1C is a graph showing effect of CP and CPA on proliferation of Jurkat cells. Jurkat cells, which were already labeled with AFSE, were grown under the same condition as the Jurkat cells shown in FIGS. 1A-B. Mean fluorescent intensity (MFI) of the cells on days 0, 2, 4 and 6 were determined using FACS.
Jurkat cells were infected with different lentiviral particles 2 days prior to use. The cells were divided into 3 aliquots. One aliquot was tested for cell growth for 6 days and the number of live and dead cells was calculated using eosin Y. Another aliquot was stained with AFSE, monitored for cell proliferation for 6 days and followed byFACS analysis. Another aliquot was pulsed with 5-bromo-2-deoxyuridine (BrdU) for 30 minutes and chased for 0 to 48 hours. The cells underwent intracellular staining with anti-BrdU antibody and FACS analysis. The other aliquot was tested for caspase activity. Caspase 3/7 fluorescent substrate was incubated with 1 μg of total lysate and caspase activity, shown in relative light unit (RLU), was measured with Victor V luminescence counter. To evaluate in vivo tumor growth, lentivirally infected Jurkat cells (1×10^6) were subcutaneously inoculated into scid/beige mice. Tumor incidence, tumor size and survival rate of the tumor-bearing mice were scored.

Jurkat cells [3] = experiment: AFSE cell proliferation assay (FACS); format: cell-based, human; conditions: low doses, up to 6 days
Description: as §2
Jurkat cells were infected with different lentiviral particles 2 days prior to use. […] One aliquot was tested for cell growth for 6 days and the number of live and dead cells was calculated using eosin Y. Another aliquot was stained with AFSE, monitored for cell proliferation for 6 days and followed byFACS analysis. […] Tumor incidence, tumor size and survival rate of the tumor-bearing mice were scored.

GST-Pdia4 [4] = target: T1, GST-Pdia4; experiment: Competition assay for binding of GST-Pdia4 and BCP; conditions: 10-fold and 50-fold excess
Description: as §1

Jurkat cells [5] = experiment: WST-1 assay (cell viability / growth inhibition); format: cell-based, human; conditions: WST-1, 24 hour incubation
Description: WST-1 assays were performed to measure cell viability. Briefly, Jurkat cells (5×10^3) were grown in 100 μl per well. After 24 hour incubation with DMSO or CP derivatives, the cells were incubated with WST-1 at 37° C. for 30 minutes and characterized by 440 nm absorption. To stain BCP-bound proteins of Jurkat cells, 30 μM of DMSO, biotin and BCP was incubated with Jurkat cells for 24 hours, respectively. After washing, the cells underwent surface or intracellular staining with avidin-PE-TR (Caltag, Calif., USA), followed by fluorescence activated cell sorting (FACS) analysis. The FACS data were processed using FCS express 3.0 software (De Novo Inc, CA, USA).

[6] = tested on: human umbilical vein endothelial cells; conditions: cited from earlier work
GST-Pdia4 [7] = target: T1, GST-Pdia4; experiment: Disulfide isomerase activity of GST-Pdia4 with reduced BPTI; format: biochemical; conditions: reduced BPTI substrate, redox buffer
Description: as §1

[8] = tested on: TS/A, mammary gland carcinoma; experiment: Cell death of TS/A mammary gland carcinoma; format: cell-based
GST-Pdia4 [9] = target: T1, GST-Pdia4; experiment: MS/MS analysis of GST-Pdia4/CPA adduct; format: binding; conditions: 24 hours, LC/MS/MS
Description: Band 1 were cut from the coomassie blue gel and subjected to in gel digestion. Briefly, the gel was dehydrated with acetonitrile, vacuum dried, and rehydrated with ammonium bicarbonate at 37° C. for 1 hour. After alkylation with iodoacetamide, the gel was suspended with 25 mM ammonium bicarbonate containing trypsin at 37° C. for 16 hours. Tryptic peptides were analyzed with LC-nanoESI-MS/MS system. Briefly, the peptides were trapped and desalted isocratically on an LC-Packings PepMap™ C18 μ-Precolumn™ Cartidge (300 μm i.d.×5 mm; Dionex, Calif., USA) for 2 minutes with 0.1% formic acid. The peptides were separated on a C18 capillary column (15 cm×75 μm i.d.) packed with 5 μm, Zorbax 300 SB C18 paticles (Micro-Tech Scientific, Calif., USA), eluted using a 40 minute fast gradient of 5% to 80% acetonitrile containing 0.1% formic acid and subjected to Micromass Q-TOF Ultima™ API mass spectrometer, equipped with an ESI source. After data acquisition, MS/MS spectra for the sample were combined and querred against non-redundant protein database using Mascot program (Matrix Science, MA, USA). For MS/MS analysis of GST-Pdia4 and GST-Pdia4/CPA adduct, GST-Pdia4 (200 μg) was incubated with DMSO or CPA (24 μg) for 24 hours. The proteins underwent LC/MS/MS analysis.

tumor cell = conditions: cited from earlier work

OCCS [2-mercaptoethanol]
interference of GST-Pdia4/BCP interaction by reducing agent (GST-Pdia4 [1]): significantly diminished the interplay of GST-Pdia4 and BCP

CC#CC#CC#CC#CCCC(CO)O[C@@H]1O[C@H](CO)[C@@H](O)[C@H](O)[C@H]1O (some centres unmarked) [CP, cytopiloyne]
T cell proliferation (T cell): showed an inhibition of T cell proliferation
cytotoxicity at low doses (Jurkat cells [2]): did not show significant cytotocxicity
Jurkat cell growth (Jurkat cells [2]): inhibited Jurkat cell growth in a dose-dependent manner
Jurkat cell proliferation (Jurkat cells [3]): significantly suppressed Jurkat cell proliferation
interference with interaction between BCP and GST-Pdia4 (GST-Pdia4 [4]): could interfere with the interaction between BCP and GST-Pdia4 at a dose-dependent manner
half maximal inhibitory concentration (IC50) for growth inhibition of Jurkat cells (Jurkat cells [5]): 52.8 µg/mL

CC#CC#CC#CC#CCCC(O)CO (centres unmarked) [CPA, cytopiloyne aglycone]
cytotoxicity at low doses (Jurkat cells [2]; CPA from 0.7 to 1.3 μg/ml): did not show significant cytotocxicity
Jurkat cell growth (Jurkat cells [2]): inhibited Jurkat cell growth in a dose-dependent manner
Jurkat cell proliferation (Jurkat cells [3]): significantly suppressed Jurkat cell proliferation
cell death of human umbilical vein endothelial cells [6]: promoted cell death
interference with interaction between BCP and GST-Pdia4 (GST-Pdia4 [4]): could interfere with the interaction between BCP and GST-Pdia4 at a dose-dependent manner; also recorded: more effective for the interference than CP
disulfide isomerase activity of GST-Pdia4 (GST-Pdia4 [7]): inhibited this activity
half maximal inhibitory concentration (IC50) for growth inhibition of Jurkat cells (Jurkat cells [5]): 2.5 µg/mL
cell death of TS/A [8]: induce cell death
covalent adduct of CPA on GST-Pdia4 (GST-Pdia4 [9]): adducted to two cysteine residues of the second CGHC motif of Pdia4

bacitricin
tumor cell death (tumor cell): cause tumor cell death
